In patent publication US4698356A, “Anti-hypertensive agents” (University of Miami, priority 1979, dated 1987):

Target: T1, human urinary ACE (angiotensin converting enzyme) (Homo sapiens, UniProt P12821)
T1 construct: The enzyme preparation was ACE purified from human urine; from tissue; host or cells: human urine (enzyme purified as described by Ryan, J.W., et al., Tissue and Cell 10, 555 (1978))
Assay: ACE activity assay (inhibition of hydrolysis of [3H]-Benzoyl-GlyHisLeu)
Format: biochemical
Details: read-out: I50
Experimental: These factors include the source of enzyme, its purity, the substrate used and its concentration, and the composition of the assay buffer.
ACE activity assay. […] To initiate the assay, 40 μl of enzyme and 10 μl of water or inhibitor dissolved in water were preincubated for five minutes at 37° C. […] To terminate the reaction, 1 ml of 0.1M HCl was added, following which 1 ml of ethyl acetate was added. The mixture was agitated on a rotary mixer and centrifuged briefly to separate the phases.
An aliquot, 500 μl, of the ethyl acetate layer was transferred to a liquid scintillation vial containing 10 ml of Riafluor, trademark New England Nuclear Corporation, Boston, Mass. For determination of I50 values, enzyme activity in the presence of inhibitor at a series of different concentrations was compared to activity in the absence of inhibitor.

T1 sequence (P12821 30-1232 limits assumed): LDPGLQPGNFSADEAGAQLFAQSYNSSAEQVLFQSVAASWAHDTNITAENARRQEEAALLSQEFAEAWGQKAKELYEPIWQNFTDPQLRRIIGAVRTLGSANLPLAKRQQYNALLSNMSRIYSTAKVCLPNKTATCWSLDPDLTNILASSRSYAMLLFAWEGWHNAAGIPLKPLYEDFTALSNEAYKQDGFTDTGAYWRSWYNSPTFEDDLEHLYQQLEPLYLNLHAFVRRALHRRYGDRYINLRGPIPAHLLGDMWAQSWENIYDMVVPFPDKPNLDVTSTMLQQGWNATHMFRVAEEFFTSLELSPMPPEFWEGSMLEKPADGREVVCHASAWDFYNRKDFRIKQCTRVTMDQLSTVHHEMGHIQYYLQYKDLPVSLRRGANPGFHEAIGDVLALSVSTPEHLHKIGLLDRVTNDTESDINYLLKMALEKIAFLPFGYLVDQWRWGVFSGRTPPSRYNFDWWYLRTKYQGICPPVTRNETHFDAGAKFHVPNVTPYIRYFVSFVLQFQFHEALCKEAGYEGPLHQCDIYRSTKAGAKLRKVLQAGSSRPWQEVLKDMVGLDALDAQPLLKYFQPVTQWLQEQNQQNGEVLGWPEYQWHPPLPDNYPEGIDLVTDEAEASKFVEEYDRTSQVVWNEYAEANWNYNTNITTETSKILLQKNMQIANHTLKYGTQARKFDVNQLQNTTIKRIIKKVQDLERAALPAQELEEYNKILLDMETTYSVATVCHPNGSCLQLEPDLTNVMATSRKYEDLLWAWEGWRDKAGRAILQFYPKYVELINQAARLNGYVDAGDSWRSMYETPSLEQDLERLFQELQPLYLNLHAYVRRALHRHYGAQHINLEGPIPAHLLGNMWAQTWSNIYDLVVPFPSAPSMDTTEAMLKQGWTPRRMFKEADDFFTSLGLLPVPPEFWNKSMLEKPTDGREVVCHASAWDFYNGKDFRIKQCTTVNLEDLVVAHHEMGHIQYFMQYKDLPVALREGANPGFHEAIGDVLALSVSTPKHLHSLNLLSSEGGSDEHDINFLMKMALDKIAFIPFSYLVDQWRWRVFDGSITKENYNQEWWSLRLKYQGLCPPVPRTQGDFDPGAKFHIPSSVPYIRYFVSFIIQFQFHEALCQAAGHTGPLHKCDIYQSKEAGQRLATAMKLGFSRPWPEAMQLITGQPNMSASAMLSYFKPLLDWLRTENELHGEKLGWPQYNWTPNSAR

- IC50: 8.8 nM
Structure (SMILES): C[C@H](CSC(=O)[C@@H](N)Cc1ccccc1)C(=O)N1CCC[C@H]1C(=O)O [Example 14, N^α -(3-L-phenylalanylthio-2-D-methylpropanoyl)-L-proline]
